From US12421253B2 (Mirati Therapeutics, Inc., priority 2020, dated 2025)
One block for each molecule: values may come before it.

What was measured:
KRas^G12V = molecular target: T1, KRas^G12V (Homo sapiens, UniProt P01116, G12V); assay: KRas binding assay (TR-FRET displacement of Cy5 labelled tracer)
T1 construct: […]; biotin (biotinylated); purchased Accelegan Inc

KRas^G13D = KRas^G13D (Homo sapiens, UniProt P01116, G13D); assay: biochemical
KRas^G12R = molecular target: T2, KRas^G12R (Homo sapiens, UniProt P01116, G12R); assay: KRas binding assay (TR-FRET displacement of Cy5 labelled tracer)
T2 construct: […]; biotin (biotinylated); purchased Accelegan Inc

KRas^Q61H = KRas^Q61H (Homo sapiens, UniProt P01116, Q61H); assay: biochemical
KRas^G12S = molecular target: T3, KRas^G12S (Homo sapiens, UniProt P01116, G12S); assay: KRas binding assay (TR-FRET displacement of Cy5 labelled tracer)
T3 construct: […]; biotin (biotinylated); purchased Accelegan Inc

KRas^G12A = molecular target: T4, KRas^G12A (Homo sapiens, UniProt P01116, G12A); assay: as above
T4 construct: […]; biotin (biotinylated); purchased Accelegan Inc

KRas^G12C = KRas^G12C (Homo sapiens, UniProt P01116, G12C); assay: biochemical
KRas^WT = molecular target: T5, KRas^WT (Homo sapiens, UniProt P01116); assay: KRas binding assay (TR-FRET displacement of Cy5 labelled tracer)
T5 construct: […]; biotin (biotinylated); purchased Accelegan Inc

KRas^G12D = molecular target: T6, KRas^G12D (Homo sapiens, UniProt P01116, G12D); assay: as above
T6 construct: […]; biotin (biotinylated); purchased Accelegan Inc
T6 sequence (P01116 1-169 isoform P01116-2 G12D): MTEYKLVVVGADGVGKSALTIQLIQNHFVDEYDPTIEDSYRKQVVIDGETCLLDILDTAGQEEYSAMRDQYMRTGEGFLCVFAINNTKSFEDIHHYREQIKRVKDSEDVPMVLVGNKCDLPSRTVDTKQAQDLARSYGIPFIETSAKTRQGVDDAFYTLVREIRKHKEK

KRas^G13D, sequence (P01116 1-169 isoform P01116-2 G13D): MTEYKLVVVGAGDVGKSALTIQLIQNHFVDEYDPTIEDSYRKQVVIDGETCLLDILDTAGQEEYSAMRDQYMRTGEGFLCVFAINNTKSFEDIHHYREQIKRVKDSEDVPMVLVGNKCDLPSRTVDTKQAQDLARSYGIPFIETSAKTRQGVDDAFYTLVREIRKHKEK
T2 sequence (P01116 1-169 isoform P01116-2 G12R): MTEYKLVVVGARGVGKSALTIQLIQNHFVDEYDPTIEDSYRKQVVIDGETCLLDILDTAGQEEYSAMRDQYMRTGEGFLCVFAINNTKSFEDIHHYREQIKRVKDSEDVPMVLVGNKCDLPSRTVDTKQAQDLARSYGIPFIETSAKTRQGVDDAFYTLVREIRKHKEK
KRas^Q61H, sequence (P01116 1-169 isoform P01116-2 Q61H): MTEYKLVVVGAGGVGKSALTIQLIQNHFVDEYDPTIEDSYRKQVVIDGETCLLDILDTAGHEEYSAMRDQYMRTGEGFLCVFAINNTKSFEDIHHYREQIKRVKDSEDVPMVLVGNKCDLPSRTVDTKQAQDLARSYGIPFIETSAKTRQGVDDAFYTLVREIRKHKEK
T3 sequence (P01116 1-169 isoform P01116-2 G12S): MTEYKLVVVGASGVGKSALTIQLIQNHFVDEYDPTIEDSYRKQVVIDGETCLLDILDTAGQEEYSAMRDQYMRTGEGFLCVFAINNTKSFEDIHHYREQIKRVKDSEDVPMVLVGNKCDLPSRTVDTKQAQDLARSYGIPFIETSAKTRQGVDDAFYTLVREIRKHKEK
T4 sequence (P01116 1-169 isoform P01116-2 G12A): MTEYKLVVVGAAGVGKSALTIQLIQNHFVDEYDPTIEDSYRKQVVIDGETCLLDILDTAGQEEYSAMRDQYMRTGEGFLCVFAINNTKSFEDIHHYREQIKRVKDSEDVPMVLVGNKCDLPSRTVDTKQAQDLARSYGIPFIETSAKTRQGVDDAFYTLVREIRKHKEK
KRas^G12C, sequence (P01116 1-169 isoform P01116-2 G12C): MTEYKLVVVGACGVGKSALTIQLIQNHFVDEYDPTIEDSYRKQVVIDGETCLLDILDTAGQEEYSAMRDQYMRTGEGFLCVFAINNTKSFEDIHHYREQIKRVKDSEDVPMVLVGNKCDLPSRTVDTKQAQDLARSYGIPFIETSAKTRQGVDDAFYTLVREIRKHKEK
T1 sequence (P01116 1-169 isoform P01116-2 G12V): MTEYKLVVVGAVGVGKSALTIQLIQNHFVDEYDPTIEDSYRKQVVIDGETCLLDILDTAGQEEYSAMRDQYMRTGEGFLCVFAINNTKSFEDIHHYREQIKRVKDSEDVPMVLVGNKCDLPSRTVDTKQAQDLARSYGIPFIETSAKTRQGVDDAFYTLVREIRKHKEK
T5 sequence (P01116 1-169 isoform P01116-2): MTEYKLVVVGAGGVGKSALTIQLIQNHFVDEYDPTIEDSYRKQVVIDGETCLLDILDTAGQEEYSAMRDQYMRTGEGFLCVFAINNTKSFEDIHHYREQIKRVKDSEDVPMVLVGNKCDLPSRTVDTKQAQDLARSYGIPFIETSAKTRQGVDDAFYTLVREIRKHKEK

Structure (SMILES): CCc1cccc2cccc(N3CCc4c(nc(OCC56CCCN5CCC6)nc4N4CCCC(c5n[nH]c(C6CC6)n5)C4)C3)c12 (stereo not drawn) [Example 108, 4-(3-(5-cyclopropyl-1H-1,2,4-triazol-3-yl)piperidin-1-yl)-7-(8-ethylnaphthalen-1-yl)-2-((tetrahydro-1H-pyrrolizin-7a(5H)-yl)methoxy)-5,6,7,8-tetrahydropyrido[3,4-d]pyrimidine]
IC50 (KRas^G12V): 948 nM
IC50 (KRas^G13D): 1290 nM
IC50 (KRas^G12R): 381 nM
IC50 (KRas^Q61H): 1600 nM
IC50 (KRas^G12S): 975 nM
IC50 (KRas^G12A): 656 nM
IC50 (KRas^G12C): 485 nM
IC50 (KRas^WT): 1550 nM
IC50 (KRas^G12D): 4090 nM

Structure (SMILES): CCc1cccc2cccc(N3CCc4c(nc(OCC56CCCN5CCC6)nc4N4CCC(O)C(CO)C4)C3)c12 (stereo not drawn) [Example 109, 1-(7-(8-ethylnaphthalen-1-yl)-2-((tetrahydro-1H-pyrrolizin-7a(5H)-yl)methoxy)-5,6,7,8-tetrahydropyrido[3,4-d]pyrimidin-4-yl)-3-(hydroxymethyl)piperidin-4-ol]
IC50 (KRas^G12V): 690 nM
IC50 (KRas^G13D): 893 nM
IC50 (KRas^G12R): 387 nM
IC50 (KRas^Q61H): 898 nM
IC50 (KRas^G12S): 612 nM
IC50 (KRas^G12A): 735 nM
IC50 (KRas^G12C): 456 nM
IC50 (KRas^WT): 519 nM
IC50 (KRas^G12D): 1770 nM

Structure (SMILES): CCc1cccc2cccc(N3CCc4c(nc(OCC56CCCN5CCC6)nc4N4CCCC(P(C)(C)=O)C4)C3)c12 (stereo not drawn) [Example 112, (1-(7-(8-ethylnaphthalen-1-yl)-2-((tetrahydro-1H-pyrrolizin-7a(5H)-yl)methoxy)-5,6,7,8-tetrahydropyrido[3,4-d]pyrimidin-4-yl)piperidin-3-yl)dimethylphosphine oxide]
IC50 (KRas^G12V): 1580 nM
IC50 (KRas^G13D): 581 nM
IC50 (KRas^G12R): 2090 nM
IC50 (KRas^Q61H): 64 nM
IC50 (KRas^G12S): 1330 nM
IC50 (KRas^G12A): 1340 nM
IC50 (KRas^G12C): 1570 nM
IC50 (KRas^WT): 412 nM
IC50 (KRas^G12D): 7290 nM

Structure (SMILES): CCc1cccc2cccc(N3CCc4c(nc(OCC56CCCN5CCC6)nc4N(C)CC(C)(C)O)C3)c12 [Example 113, 1-((7-(8-ethylnaphthalen-1-yl)-2-((tetrahydro-1H-pyrrolizin-7a(5H)-yl)methoxy)-5,6,7,8-tetrahydropyrido[3,4-d]pyrimidin-4-yl)(methyl)amino)-2-methylpropan-2-ol]
IC50 (KRas^G12V): 450 nM
IC50 (KRas^G13D): 654 nM
IC50 (KRas^G12R): 756 nM
IC50 (KRas^Q61H): 523 nM
IC50 (KRas^G12S): 601 nM
IC50 (KRas^G12A): 464 nM
IC50 (KRas^G12C): 418 nM
IC50 (KRas^WT): 509 nM
IC50 (KRas^G12D): 843 nM

Structure (SMILES): CCc1cccc2cccc(N3CCc4c(nc(OCC56CCCN5CCC6)nc4N4CCCC(c5ccn[nH]5)C4)C3)c12 (stereo not drawn) [Example 115, 4-(3-(1H-pyrazol-5-yl)piperidin-1-yl)-7-(8-ethylnaphthalen-1-yl)-2-((tetrahydro-1H-pyrrolizin-7a(5H)-yl)methoxy)-5,6,7,8-tetrahydropyrido[3,4-d]pyrimidine]
IC50 (KRas^G12V): 1810 nM
IC50 (KRas^G13D): 1400 nM
IC50 (KRas^G12R): 460 nM
IC50 (KRas^Q61H): 1210 nM
IC50 (KRas^G12S): 1350 nM
IC50 (KRas^G12A): 1110 nM
IC50 (KRas^G12C): 928 nM
IC50 (KRas^WT): 1150 nM
IC50 (KRas^G12D): 3040 nM

Structure (SMILES): CCc1cccc2cccc(N3CCc4c(nc(OCC56CCCN5CCC6)nc4N4CCCC(c5cn(C)nn5)C4)C3)c12 (stereo not drawn) [Example 118, 7-(8-ethylnaphthalen-1-yl)-4-(3-(1-methyl-1H-1,2,3-triazol-4-yl)piperidin-1-yl)-2-((tetrahydro-1H-pyrrolizin-7a(5H)-yl)methoxy)-5,6,7,8-tetrahydropyrido[3,4-d]pyrimidine]
IC50 (KRas^G12V): 948 nM
IC50 (KRas^G13D): 1570 nM
IC50 (KRas^G12R): 558 nM
IC50 (KRas^Q61H): 1490 nM
IC50 (KRas^G12S): 917 nM
IC50 (KRas^G12A): 880 nM
IC50 (KRas^G12C): 652 nM
IC50 (KRas^WT): 1950 nM
IC50 (KRas^G12D): 1800 nM

Structure (SMILES): CCc1cccc2cccc(N3CCc4c(nc(OCC56CCCN5CCC6)nc4N4CCCCC(C)C4)C3)c12 (stereo not drawn) [Example 119]
IC50 (KRas^G12V): 564 nM
IC50 (KRas^G13D): 735 nM
IC50 (KRas^G12R): 836 nM
IC50 (KRas^Q61H): 778 nM
IC50 (KRas^G12S): 797 nM
IC50 (KRas^G12A): 644 nM
IC50 (KRas^G12C): 811 nM
IC50 (KRas^WT): 967 nM
IC50 (KRas^G12D): 1050 nM

Other lines, results leading:

IC50 (KRas^G12V): 566 nM
IC50 (KRas^G13D): 412 nM
IC50 (KRas^G12R): 788 nM
IC50 (KRas^Q61H): 491 nM
IC50 (KRas^G12S): 551 nM
IC50 (KRas^G12A): 595 nM
IC50 (KRas^G12C): 639 nM
IC50 (KRas^WT): 400 nM
IC50 (KRas^G12D): 726 nM
Structure (SMILES): CCc1cccc2cccc(N3CCc4c(nc(OCC56CCCN5CCC6)nc4N4CCCC(O)(C(F)(F)F)C4)C3)c12 (stereo not drawn) [Example 110, 1-(7-(8-ethylnaphthalen-1-yl)-2-((tetrahydro-1H-pyrrolizin-7a(5H)-yl)methoxy)-5,6,7,8-tetrahydropyrido[3,4-d]pyrimidin-4-yl)-3-(trifluoromethyl)piperidin-3-ol]

IC50 (KRas^G12V): 404 nM
IC50 (KRas^G13D): 544 nM
IC50 (KRas^G12R): 546 nM
IC50 (KRas^Q61H): 513 nM
IC50 (KRas^G12S): 486 nM
IC50 (KRas^G12A): 440 nM
IC50 (KRas^G12C): 417 nM
IC50 (KRas^WT): 411 nM
IC50 (KRas^G12D): 602 nM
Structure (SMILES): CCc1cccc2cccc(N3CCc4c(nc(OCC56CCCN5CCC6)nc4N4C[C@@H](C)C[C@@H](O)C4)C3)c12 [Example 111, (3R,5S)-1-(7-(8-ethylnaphthalen-1-yl)-2-((tetrahydro-1H-pyrrolizin-7a(5H)-yl)methoxy)-5,6,7,8-tetrahydropyrido[3,4-d]pyrimidin-4-yl)-5-methylpiperidin-3-ol]

IC50 (KRas^G12V): 1790 nM
IC50 (KRas^G13D): 1670 nM
IC50 (KRas^G12R): 462 nM
IC50 (KRas^Q61H): 1640 nM
IC50 (KRas^G12S): 1490 nM
IC50 (KRas^G12A): 1160 nM
IC50 (KRas^G12C): 1110 nM
IC50 (KRas^WT): 2100 nM
IC50 (KRas^G12D): 3300 nM
Structure (SMILES): CCc1cccc2cccc(N3CCc4c(nc(OCC56CCCN5CCC6)nc4N4CCCC(c5c[nH]cn5)C4)C3)c12 (stereo not drawn) [Example 116, 4-(3-(1H-imidazol-4-yl)piperidin-1-yl)-7-(8-ethylnaphthalen-1-yl)-2-((tetrahydro-1H-pyrrolizin-7a(5H)-yl)methoxy)-5,6,7,8-tetrahydropyrido[3,4-d]pyrimidine]

IC50 (KRas^G12V): 4210 nM
IC50 (KRas^G13D): 2010 nM
IC50 (KRas^G12R): 1320 nM
IC50 (KRas^Q61H): 2100 nM
IC50 (KRas^G12S): 2480 nM
IC50 (KRas^G12A): 1530 nM
IC50 (KRas^G12C): 573 nM
IC50 (KRas^WT): 1810 nM
IC50 (KRas^G12D): 6380 nM
Structure (SMILES): CCc1cccc2cccc(N3CCc4c(nc(OCC56CCCN5CCC6)nc4N4CCCC(c5nc(C)c(C)[nH]5)C4)C3)c12 (stereo not drawn) [Example 120, 4-(3-(4,5-dimethyl-1H-imidazol-2-yl)piperidin-1-yl)-7-(8-ethylnaphthalen-1-yl)-2-((tetrahydro-1H-pyrrolizin-7a(5H)-yl)methoxy)-5,6,7,8-tetrahydropyrido[3,4-d]pyrimidine]

IC50 (KRas^G12V): 1410 nM
IC50 (KRas^G13D): 720 nM
IC50 (KRas^G12R): 1490 nM
IC50 (KRas^Q61H): 1050 nM
IC50 (KRas^G12S): 665 nM
IC50 (KRas^G12A): 1320 nM
IC50 (KRas^G12C): 1200 nM
IC50 (KRas^WT): 651 nM
IC50 (KRas^G12D): 1030 nM
Structure (SMILES): CCc1cccc2cccc(N3CCc4c(nc(OCC56CCCN5CCC6)nc4N4CCCC(S(=O)(=O)NC)C4)C3)c12 (stereo not drawn) [Example 125, 1-(7-(8-ethylnaphthalen-1-yl)-2-((tetrahydro-1H-pyrrolizin-7a(5H)-yl)methoxy)-5,6,7,8-tetrahydropyrido[3,4-d]pyrimidin-4-yl)-N-methylpiperidine-3-sulfonamide]
